Measured values reported in US20030153030A1, “Enzyme-catalyzed modification of substances in biological mixtures” (priority 1999, published 2003).

Assays:
MSCP5 cells = assay: Prostaglandin synthesis/release in 14C-arachidonic acid-marked skin keratinocytes; type: cell-based, Murine; details: NS398 10 μM, positive control, 2 hours incubation
Protocol: FIG. 1 is a schematic illustration of the effects of salicin and salicin esters on the release of prostaglandin in keratinocytes. The average value of three measuring points is shown. In FIG. 1, 1=negative control, 2=salicin, 3=phenyl propionyl salicin, 4=p-OH-phenyl acetyl salicin and 5=positive control.
Murine (MSCP5) and human (HPKII) skin keratinocytes were marked for 16 hours with 0.2 μCi ^14C-arachidonic acid/ml medium. Salicin, phenylpropionyl salicin and p-OH-phenylacetyl salicin in fresh medium were added in increasing concentrations as test substances and incubated for 2 hours. In the positive control NS398 (10 μM) for MSCP5 cells, prostaglandin synthesis is reduced by 85%. The prostaglandins were identified by comparison with reference substances and quantified by radiodensitometry. MSCP5: 100%=201 cpm; HPKII: 100%=63 cpm.

[1] = Activity of salicin derivative as opposed to salicin; details: modified versus unmodified salicin

Compound	prostaglandin synthesis is reduced by (MSCP5 cells) [%]	improvement of activity as opposed to salicin [1]
CS(=O)(=O)Nc1ccc([N+](=O)[O-])cc1OC1CCCCC1 [NS398]	85	–
O=C(Cc1ccc(O)cc1)OCC1OC(Oc2ccccc2CO)C(O)C(O)C1O (centres unmarked) [p-OH-phenyl acetoyl salicin, p-OH-phenylacetyl salicin]	–	improvements are also shown
